Entries after “also recorded” stand apart in the source; their conditions may differ. Blank lines part the entries; values can stand above or below the molecule they belong to.
Assays:
[1] = system: blood-brain barrier; experiment: FUS and microbubble BBB opening: fluorescent dextran delivery to the sonicated hippocampus, quantified as NOD;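 note: male wild-type C57BL/6 mice, left hippocampus sonicated with untargeted right hippocampus as control, read by fluorescence microscopy of frozen horizontal brain sections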
[2] = system: blood-brain barrier; settings: mouse
[3] = PL 3.5 cycles, PRF 6.25 kHz, BRF 0.1 Hz, BL 1000 pulses, pressure 0.51
[4] = PL 3.5 cycles, PRF 6.25 kHz, BRF 1 Hz, BL 1000 pulses, pressure 0.51
[5] = PL 3.5 cycles, PRF 6.25 kHz, BRF 2 Hz, BL 1000 pulses, pressure 0.51
[6] = PL 3.5 cycles, PRF 6.25 kHz, BRF 5 Hz, BL 1000 pulses, pressure 0.51
[7] = PL 3.5 cycles, PRF 6.25 kHz, pulses emitted continuously without bursts, pressure 0.51
[8] = PL 3.5 cycles, PRF 25 kHz, BRF 0.1 Hz, BL 1000 pulses, pressure 0.51
[9] = PL 3.5 cycles, PRF 25 kHz, BRF 1 Hz, BL 1000 pulses, pressure 0.51
[10] = PL 3.5 cycles, PRF 25 kHz, BRF 2 Hz, BL 1000 pulses, pressure 0.51
[11] = PL 3.5 cycles, PRF 25 kHz, BRF 5 Hz, BL 1000 pulses, pressure 0.51
[12] = PL 3.5 cycles, PRF 25 kHz, BRF 10 Hz, BL 1000 pulses, pressure 0.51
[13] = PL 3.5 cycles, PRF 25 kHz, pulses emitted continuously without bursts, pressure 0.51
[14] = PL 3.5 cycles, PRF 100 kHz, BRF 0.1 Hz, BL 1000 pulses, pressure 0.51
[15] = PL 3.5 cycles, PRF 100 kHz, BRF 1 Hz, BL 1000 pulses, pressure 0.51
[16] = PL 3.5 cycles, PRF 100 kHz, BRF 2 Hz, BL 1000 pulses, pressure 0.51
[17] = PL 3.5 cycles, PRF 100 kHz, BRF 5 Hz, BL 1 pulse, pressure 0.51
[18] = PL 3.5 cycles, PRF 100 kHz, BRF 5 Hz, BL 5 pulses, pressure 0.51
[19] = PL 3.5 cycles, PRF 100 kHz, BRF 5 Hz, BL 10 pulses, pressure 0.51
[20] = PL 3.5 cycles, PRF 100 kHz, BRF 5 Hz, BL 50 pulses, pressure 0.51
[21] = PL 3.5 cycles, PRF 100 kHz, BRF 5 Hz, BL 100 pulses, pressure 0.51
[22] = PL 3.5 cycles, PRF 100 kHz, BRF 5 Hz, BL 500 pulses, pressure 0.51
[23] = PL 3.5 cycles, PRF 100 kHz, BRF 5 Hz, BL 1000 pulses, pressure 0.13
[24] = PL 3.5 cycles, PRF 100 kHz, BRF 5 Hz, BL 1000 pulses, pressure 0.25
[25] = PL 3.5 cycles, PRF 100 kHz, BRF 5 Hz, BL 1000 pulses, pressure 0.37
[26] = PL 3.5 cycles, PRF 100 kHz, BRF 5 Hz, BL 1000 pulses, pressure 0.51
[27] = PL 3.5 cycles, PRF 100 kHz, BRF 10 Hz, BL 1000 pulses, pressure 0.51
[28] = PL 3.5 cycles, PRF 100 kHz, pulses emitted continuously without bursts, pressure 0.51
[29] = microbubble 0.01 μL/g, PRF 10 Hz, PL 20 ms, 0.46 MPa, 11-minute sonication
[30] = microbubble 0.05 μL/g injected over 180 seconds, PRF 5 Hz, PL 0.2 ms, 0.46 MPa
[31] = microbubble 0.05 μL/g, PRF 0.1 Hz, PL 20 ms, 0.46 MPa, 11-minute sonication
[32] = microbubble 0.05 μL/g, PRF 1 Hz, PL 20 ms, 0.46 MPa, 11-minute sonication
[33] = microbubble 0.05 μL/g, PRF 5 Hz, PL 0.2 ms, 0.46 MPa, 11-minute sonication
[34] = microbubble 0.05 μL/g, PRF 5 Hz, PL 20 ms, 0.46 MPa, 11-minute sonication
[35] = microbubble 0.05 μL/g, PRF 10 Hz, PL 0.03 ms, 0.46 MPa, 11-minute sonication
[36] = microbubble 0.05 μL/g, PRF 10 Hz, PL 0.1 ms, 0.46 MPa, 11-minute sonication
[37] = microbubble 0.05 μL/g, PRF 10 Hz, PL 0.2 ms, 0.46 MPa, 11-minute sonication
[38] = microbubble 0.05 μL/g, PRF 10 Hz, PL 1 ms, 0.46 MPa, 11-minute sonication
[39] = microbubble 0.05 μL/g, PRF 10 Hz, PL 2 ms, 0.46 MPa, 11-minute sonication
[40] = microbubble 0.05 μL/g, PRF 10 Hz, PL 10 ms, 0.46 MPa, 11-minute sonication
[41] = microbubble 0.05 μL/g, PRF 10 Hz, PL 20 ms, 0.46 MPa, 11-minute sonication
[42] = microbubble 0.05 μL/g, PRF 10 Hz, PL 20 ms, 0.46 MPa, microbubble and dextran 1 minute before a 30-second sonication
[43] = microbubble 0.05 μL/g, PRF 10 Hz, PL 30 ms, 0.46 MPa, 11-minute sonication
[44] = microbubble 0.05 μL/g, PRF 25 Hz, PL 20 ms, 0.46 MPa, 11-minute sonication
[45] = microbubble 0.25 μL/g, PRF 10 Hz, PL 20 ms, 0.46 MPa, 11-minute sonication
[46] = sham mouse, no ultrasound applied, microbubble 0.05 μL/g

increase in NOD (significance) ([1]; 100-kHz PRF, 5-Hz BRF, 0.51 MPa, 1000 pulse BL): Significant increases
NOD (mean ± std. dev.) [1, 3]: 0.68 ± 0.47 × 1e9
NOD (mean ± std. dev.) [1, 4]: 0.78 ± 0.85 × 1e9
NOD (mean ± std. dev.) [1, 5]: −0.16 ± 0.67 × 1e9
NOD (mean ± std. dev.) [1, 6]: 0.56 ± 0.95 × 1e9
NOD (mean ± std. dev.) [1, 7]: −0.11 ± 0.35 × 1e9
NOD (mean ± std. dev.) [1, 8]: 0.35 ± 0.10 × 1e9
NOD (mean ± std. dev.) [1, 9]: 1.92 ± 0.10 × 1e9
NOD (mean ± std. dev.) [1, 10]: 3.34 ± 1.35 × 1e9
NOD (mean ± std. dev.) [1, 11]: 1.48 ± 0.77 × 1e9
NOD (mean ± std. dev.) [1, 12]: 1.31 ± 1.35 × 1e9
NOD (mean ± std. dev.) [1, 13]: 0.30 ± 0.20 × 1e9
NOD (mean ± std. dev.) [1, 14]: 0.99 ± 0.85 × 1e9
NOD (mean ± std. dev.) [1, 15]: 1.45 ± 0.73 × 1e9
NOD (mean ± std. dev.) [1, 16]: 3.08 ± 2.76 × 1e9
NOD (mean ± std. dev.) [1, 17]: 0.01 ± 0.11 × 1e9
NOD (mean ± std. dev.) [1, 18]: 0.13 ± 0.17 × 1e9
NOD (mean ± std. dev.) [1, 19]: 2.14 ± 1.33 × 1e9
NOD (mean ± std. dev.) [1, 20]: 2.20 ± 0.54 × 1e9
NOD (mean ± std. dev.) [1, 21]: 3.60 ± 0.95 × 1e9
NOD (mean ± std. dev.) [1, 22]: 3.30 ± 0.58 × 1e9
NOD (mean ± std. dev.) [1, 23]: 0.10 ± 0.21 × 1e9
NOD (mean ± std. dev.) [1, 24]: 0.10 ± 0.16 × 1e9
NOD (mean ± std. dev.) [1, 25]: 0.60 ± 0.48 × 1e9
NOD (mean ± std. dev.) [1, 26]: 6.14 ± 1.45 × 1e9
NOD (mean ± std. dev.) [1, 27]: 2.01 ± 1.44 × 1e9
NOD (mean ± std. dev.) [1, 28]: 0.21 ± 0.32 × 1e9
NOD (mean ± std. dev.) [1, 29]: 2.89 ± 1.99 × 1e9
Number of mice with delivered dextran [1, 29]: 5/5
NOD (mean ± std. dev.) [1, 30]: 1.58 ± 1.37 × 1e9
Number of mice with delivered dextran [1, 30]: 5/5
NOD (mean ± std. dev.) [1, 31]: −0.17 ± 0.17 × 1e9
Number of mice with delivered dextran [1, 31]: 0/5
NOD (mean ± std. dev.) [1, 32]: 3.77 ± 4.52 × 1e9
Number of mice with delivered dextran [1, 32]: 3/5
NOD (mean ± std. dev.) [1, 33]: 2.02 ± 1.38 × 1e9
Number of mice with delivered dextran [1, 33]: 5/5
NOD (mean ± std. dev.) [1, 34]: 4.21 ± 2.05 × 1e9
Number of mice with delivered dextran [1, 34]: 5/5
NOD (mean ± std. dev.) [1, 35]: 0.78 ± 1.41 × 1e9
Number of mice with delivered dextran [1, 35]: 2/5
NOD (mean ± std. dev.) [1, 36]: 1.20 ± 1.05 × 1e9
Number of mice with delivered dextran [1, 36]: 5/6
NOD (mean ± std. dev.) [1, 37]: 0.98 ± 0.67 × 1e9
Number of mice with delivered dextran [1, 37]: 5/5
NOD (mean ± std. dev.) [1, 38]: 4.07 ± 3.71 × 1e9
Number of mice with delivered dextran [1, 38]: 5/5
NOD (mean ± std. dev.) [1, 39]: 1.84 ± 1.44 × 1e9
Number of mice with delivered dextran [1, 39]: 4/5
NOD (mean ± std. dev.) [1, 40]: 4.76 ± 2.03 × 1e9
Number of mice with delivered dextran [1, 40]: 5/5
NOD (mean ± std. dev.) [1, 41]: 4.45 ± 2.08 × 1e9
Number of mice with delivered dextran [1, 41]: 5/5
NOD (mean ± std. dev.) [1, 42]: 4.91 ± 0.94 × 1e9
Number of mice with delivered dextran [1, 42]: 5/5
NOD (mean ± std. dev.) [1, 43]: 5.77 ± 1.73 × 1e9
Number of mice with delivered dextran [1, 43]: 5/5
NOD (mean ± std. dev.) [1, 44]: 4.58 ± 1.40 × 1e9
Number of mice with delivered dextran [1, 44]: 5/5
NOD (mean ± std. dev.) [1, 45]: 5.34 ± 2.12 × 1e9
Number of mice with delivered dextran [1, 45]: 5/5
NOD (mean ± std. dev.) [1, 46]: 0.01 ± 0.23 × 1e9
Number of mice with delivered dextran [1, 46]: 0/5
Molecule: dextran
Incidence of NOD increase [1, 3]: 2/3
Incidence of NOD increase [1, 4]: 2/3
Incidence of NOD increase [1, 5]: 1/3
Incidence of NOD increase [1, 6]: 2/3
Incidence of NOD increase [1, 7]: 1/3
Incidence of NOD increase [1, 8]: 2/3
Incidence of NOD increase [1, 9]: 3/3
Incidence of NOD increase [1, 10]: 3/3
Incidence of NOD increase [1, 11]: 3/3
Incidence of NOD increase [1, 12]: 2/3
Incidence of NOD increase [1, 13]: 1/3
Incidence of NOD increase [1, 14]: 2/3
Incidence of NOD increase [1, 15]: 3/3
Incidence of NOD increase [1, 16]: 3/3
Incidence of NOD increase [1, 17]: 0/3
Incidence of NOD increase [1, 18]: 1/3
Incidence of NOD increase [1, 19]: 3/3
Incidence of NOD increase [1, 20]: 3/3
Incidence of NOD increase [1, 21]: 3/3
Incidence of NOD increase [1, 22]: 3/3
Incidence of NOD increase [1, 23]: 1/3
Incidence of NOD increase [1, 24]: 1/3
Incidence of NOD increase [1, 25]: 2/3
Incidence of NOD increase [1, 26]: 3/3
Incidence of NOD increase [1, 27]: 3/3
Incidence of NOD increase [1, 28]: 1/3
spatial distribution of delivered dextran fluorescence in the target ROI ([1]; bursts of 3.5-cycle pulses, 100-kHz PRF, 5-Hz BRF, 0.51 MPa, 1000 pulse BL, listed as 3-kDa dextran): distributed most homogeneously and across a larger area than the other two molecular weights; also recorded: homogeneous and diffuse spatial distribution

B1: GDNF: glia-derived neurotrophic factor (protein, UniProt P39905 78-211, looked up)
Glial cell line-derived …: SPDKQMAVLPRRERNRQAAAANPENSRGKGRRGQRGKNRGCVLTAIHLNVTDLGLGYETKEELIFRYCSGSCDAAETTYDKILKNLSRNRRLVSDKVGQACCRPIAFDDDLSFLDDNLVYHILRKHSAKRCGCI
permeation through the FUS-opened BBB into the parenchyma [2]: does not
fluorescence post-mortem in brain, kidneys, liver, bladder or testes ([2]; in vivo): no fluorescence was found
time within which the protein may be broken down in circulation ([2]; in vivo): ≤ 45 s

B2: Neurturin: neurotrophic factor neurturin (NTN) (protein, UniProt Q99748 96-197, looked up)
Neurturin: ARLGARPCGLRELEVRVSELGLGYASDETVLFRYCAGACEAAARVYDLGLRRLRQRRRLRRERVRAQPCCRPTAYEDEVSFLDAHSRYHTVHELSARECACV
permeation through the FUS-opened BBB into the parenchyma [2]: permeating through the opened barrier and into the parenchyma
